Experimental data taken from patent publication US20220072098A1 (priority 2012, published 2022).
“Also recorded” adds a separate entry of the source.

Tests used:
AChE [1] = biological target: T1, AChE (Homo sapiens, UniProt P22303); test: Head group hydrolysis by AChE / choline esterases; format: biochemical
Experimental: FIG. 41: Hydrolysis of the ACh head group of bioamphiphiles GLH-20 and GLH-32 by AChE. Hydrolysis was measured by determining the pH change after addition of AChE to the incubation medium and was converted to change in the proton concentration.

[2] = Preliminary toxicity studies of vesicles / bolas
[3] = Vesicle stability in storage / PBS (CF encapsulation, size)
Experimental: Vesicle stability: To determine vesicle stability, samples of carboxyfluorescein (CF)-loaded vesicles (see below method for loading vesicles with CF and determination of percent encapsulation) were incubated in PBS and percent encapsulation was determined at different times.
To determine the stability of vesicles with encapsulated protein, vesicle samples were incubated in PBS and the percent encapsulation was determined at different times. Stability was also determined by changes in the vesicle size (by DLS, as was described in previous sections) at various time points after vesicle preparation.
Vesicle stability was evaluated by measuring both changes in the concentration of encapsulated carboxyfluorescein (CF) and vesicles size as a function of time when incubated in PBS at room temperature.
Vesicles were prepared from each of the above formulations by the method of film hydration followed by sonication as described above, and percent CF encapsulation was determined at different times in storage at 4° C.

[4] = Vesicle size and size distribution by dynamic light scattering (DLS); format: physicochemical
Experimental: Dynamic light scattering (DLS): Vesicle size and homogeneity was determined by DLS using HPPS-NIBS, light scattering apparatus (ALV-Laser, Langen, Germany) with the laser powered at 3 mW HE-Ne laser line (632.8 nm), at the Ilse Katz Institute for Nanoscale Science and Technology of BGU. Standard vesicle solutions were diluted 1:10 and loaded into a cuvette for light scattering measurements. The measurements were conducted at an angle of 173°, during 30-180 seconds, from different positions of the cell in order to avoid measurements of multiple scattering.
Zeta-potential measurements: Particle size and zeta potential were measured by using zeta potential and Particle size analyzer, ZetaPlus, (Brookhaven Instruments Corporation Ltd, NY, USA), in the range of 10-1000 nm, in the Chemistry Department of BGU. Vesicle solutions were diluted 1:10 in appropriate buffers and loaded into a 4 ml cuvette for light scattering measurements. The measurements were conducted at an angle of 90°, at 10 repeated measurements, and zeta potential was estimated as an average of 5 repeated readings.

AChE [5] = biological target: T1, AChE; test: Inhibition of ATC hydrolysis by AChE (Lineweaver-Burk analysis); format: biochemical; conditions: three concentrations; Km affected, Vmax not
Experimental: In order to compare between the inhibitory potentials of the two bolaamphiphiles, the rate of ATC hydrolysis was measured in presence of three concentrations of the GLH compounds and assessed the results by a Lineweaver-Burk analysis.

[6] = CF concentration in brain after i.v. injection of CF-loaded vesicles; format: in vivo, mice; conditions: 30 min
Experimental: Unless otherwise stated, animals were pretreated 15 min before the injection of the test material by pyridostigmine (o.5 mg/kg, i.m.) to inhibit peripheral ChE and thus, reduce vesicle decapsulation in the blood circulation before they enter the brain. The test material was injected i.v. into the tail vein in a volume of 100-200 µl per mouse.
The test material (either free CF or encapsulated CF) was injected into the tail vein of mice in a volume of up to 200 μl. The quantity of encapsulated CF was always determined prior to the administration and similar amounts of either encapsulated or free CF were injected. At 30 minutes after the injection, mice were anesthetized by Xylazine-Ketamine and blood was withdrawn through cardiac puncture, the mouse was perfused with 10 ml PBS and tissues were dissected out. The specimens were homogenized in PBS, deproteinated by 5% (final concentration) of tricholoro acetic acid (TCA), centrifuged and the supernatants were used for fluorescence measurements.
This experiment mesure accumulation of CF in the brain following i.v. administration. […] 30 min after the injection, the animals were sacrificed, perfused with 10 ml PBS and the brains removed and homogenized, deproteinized by 5% tricholoroacetic acid and fluorescence determined in the supernatants obtained following centrifugation. […]

[7] = Analgesia after i.v. injection of enkephalin, free or in vesicles; conditions: i.v. analgesic peptide (enkephalin)
[8] = Albumin-FITC fluorescence in cerebral cortex after i.v. injection; format: in vivo; conditions: mouse cerebral cortex fluorescence
From the text: FIG. 5A: Fluorescence in mouse cerebral cortex after i.v. injection of albumin-FITC (non-encapsulated); FIG. 5B: Fluorescence in mouse cerebral cortex after i.v. injection of albumin-FITC encapsulated in GLH-20 vesicles.

[9] = Integrity of GDNF after encapsulation (SDS-PAGE); conditions: monomeric and dimeric forms
Experimental: Sodium dodecyl sulfate polyacrylamide gel electrophoresis (SDS-PAGE) was used to examine whether the encapsulation process affects the integrity of the encapsulated GDNF. The test samples were applied on a 5%−/15% SDS-polyacrylamide gel and electrophoresis was performed using a running buffer of 14.4 g glycine and 3 g Tris base per Liter with […]. The gels were then stained by Coomasie blue using the Bio-Safe Coomassie staining protocol and then destained for 30 min in water.

[10] = GDNF encapsulation in bolaamphiphilic vesicles; format: physicochemical; conditions: 12.5 μg/ml GDNF (AlexaFluor-488); 10 mg/ml GLH-19 + GLH-20 vesicles
Experimental: The encapsulation efficiencies of trypsinogen and GDNF were assessed by first running the sample through a Sephadex G-50 column to remove non-encapsulated protein from the encapsulated protein. The fractions obtained from the column (generally 0.5 ml per fraction) were treated by Triton X-100 reduced form to avoid interference with the absorbance reading of the encapsulated material at 280 nm. The concentration of trypsinogen or GDNF proteins was measured by either UV absorbance at 280 nm, or when the quantities of the proteins were low, the proteins were labeled with AlexaFluor®-488 (see procedure for labeling the proteins below) and their quantities determined by fluorescence spectroscopy. Percent encapsulation was determined by dividing the area under the curve of the vesicle fractions by the total area under the curve, which was the sum of the area under the curve of the vesicle preparation and the area under the curve of the free protein. With the use of a calibration curve the concentrations in each were determined. […]
Since GDNF would be used at sub milligram range and its spectroscopic absorption could not be accurately measured at these concentrations, therefore, fluorescent tagging was investigated as a means of increasing the sensitivity of the determination of low quantities of the encapsulated protein. […]

[11] = system: SH-SYSY neuroblastoma cells; test: GDNF activity: activation of AKT and MAPK; format: cell-based, human; conditions: 20 ng/ml hGDNF; free, encapsulated or added to empty vesicles; Western blot
Experimental: To determine the activity of GDNF, we measured the effect of 20 ng/ml hGDNF on the activation of the enzymes AKT and MAPK using SH-SYSY neuroblastoma cells (obtained from the ATTC). For this measurement, we plated the cells in 12 well plates coated with PEI at a density range of 3×10^5-6×10^5 cells/well 48 h prior to the bioassay. Cells were deprived of serum for 2.5 h, stimulated by the test material (plain medium as a control or free GDNF or encapsulated GDNF), washed once with ice-cold PBS and then lysed in […] sample buffer. The lysates were boiled, sonicated and centrifuged and then loaded onto 10% acrylamide gel for SDS-PAGE. After the electrophoresis, the samples were immune-blotted using antibodies against phospho-MAPK44/42 and against phospho-AKT.
The effect of the encapsulation process on GDNF activity was also examined by treating neuroblastoma cells that respond to GDNF by activation of kinases, particularly AKT and MAPK. […] AKT and MAPK are activated when they are phosphorylated and GDNF induces phosphorylation of these enzymes in SH-SY5Y neuroblastoma cells. If GDNF activity is impaired, it will not phosphorylate AKT and MAPK to pAKT and pMAPK, respectively. pAKT and pMAPK can be detected by specific antibodies for the phosphorylated forms of the enzymes on a Western blot.

[12] = Trypsinogen encapsulation in bolaamphiphilic vesicles (Sephadex column, UV or fluorescence); format: physicochemical; conditions: 10 mg/ml GLH-19 + GLH-20 vesicles
[13] = formulated with CHOL and CHEMS at a ratio of 2:1:1
[14] = vesicles from the bolaamphiphile without additives

T1 sequence (P22303 32-614): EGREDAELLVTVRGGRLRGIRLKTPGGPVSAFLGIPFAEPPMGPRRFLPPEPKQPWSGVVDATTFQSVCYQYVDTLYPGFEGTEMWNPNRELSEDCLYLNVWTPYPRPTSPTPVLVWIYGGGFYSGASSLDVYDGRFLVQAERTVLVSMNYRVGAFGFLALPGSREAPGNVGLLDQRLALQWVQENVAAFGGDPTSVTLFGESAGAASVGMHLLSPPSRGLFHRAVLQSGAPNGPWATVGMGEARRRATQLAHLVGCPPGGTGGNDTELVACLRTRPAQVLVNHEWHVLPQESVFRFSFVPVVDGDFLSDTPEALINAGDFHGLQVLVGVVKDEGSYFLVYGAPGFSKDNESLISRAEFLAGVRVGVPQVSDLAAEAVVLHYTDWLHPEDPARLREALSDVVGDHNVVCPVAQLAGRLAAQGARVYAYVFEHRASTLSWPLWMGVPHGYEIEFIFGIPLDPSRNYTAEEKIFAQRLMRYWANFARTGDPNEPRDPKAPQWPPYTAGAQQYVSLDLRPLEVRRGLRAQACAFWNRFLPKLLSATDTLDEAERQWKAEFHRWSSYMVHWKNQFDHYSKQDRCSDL

Molecule: CCCCCC(OC(=O)CCCC(=O)OCC[N+](C)(C)C)C(O)C/C=C\CCCCCCCC(=O)NCCCCCCCCCCNC(=O)CCCCCCC/C=C\CC(O)C(CCCCC)OC(=O)CCCC(=O)OCC[N+](C)(C)C.[Cl-].[Cl-] (stereo not drawn) [GLH-19]
- hydrolysis of ACh head group by AChE / ChE (AChE [1]): not hydrolyzed by AChE
- toxicity relative to GLH-20 [2]: less toxic

Molecule: CCCCCC(OC(=O)C[N+](C)(C)CCOC(C)=O)C(O)C/C=C\CCCCCCCC(=O)NCCCCCCCCCCOC(=O)CCCCCCC/C=C\CC(O)C(CCCCC)OC(=O)C[N+](C)(C)CCOC(C)=O.[Cl-].[Cl-] (stereo not drawn) [GLH-20 (empty vesicles)]
- vesicle stability in storage [3]: stable in storage

Molecule: CCCCCC(OC(=O)C[N+](C)(C)CCOC(C)=O)C(O)C/C=C\CCCCCCCC(=O)NCCCCCCCCCCOC(=O)CCCCCCC/C=C\CC(O)C(CCCCC)OC(=O)C[N+](C)(C)CCOC(C)=O.[Cl-].[Cl-] (stereo not drawn) [GLH-20]
- hydrolysis of ACh head group by AChE / ChE (AChE [1]): hydrolyzed by choline esterases; also recorded: significantly faster
- Diameter (nm) [4, 13]: 120 nm
- Weight (%) main peak [4, 13]: 100%
- Diameter (nm) [4, 14]: 368 nm
- Weight of Main peak (%) [4, 14]: 97%
- type of inhibition of ATC hydrolysis by AChE (AChE [5]): competitive inhibitors

Molecule: CCCCCCCCC(OC(=O)C[N+](C)(C)CCOC(C)=O)C(O)CCCCCCCC(=O)OCCCCCCCCCCOC(=O)CCCCCCCC(O)C(CCCCCCCC)OC(=O)C[N+](C)(C)CCOC(C)=O.[Cl-].[Cl-] (stereo not drawn) [GLH-32]
- hydrolysis of ACh head group by AChE / ChE (AChE [1]): hydrolyzed by AChE
- Diameter (nm) [4, 13]: 134 nm
- Weight (%) main peak [4, 13]: 100%
- Diameter (nm) [4, 14]: 345 nm
- Weight of Main peak (%) [4, 14]: 68%
- type of inhibition of ATC hydrolysis by AChE (AChE [5]): competitive inhibitors

Molecule: carboxyfluorescein [free CF]
- brain penetration of free CF [6]: hardly entered the brain
- brain penetration of free CF ([6]; listed as Free CF): did not penetrate into the brain in significant amounts

Molecule: free enkephalin: non-encapsulated enkephalin administered together with empty vesicles (YGGFL; Leu-enkephalin; UniProt P01210 230-234, looked up)
- analgesia [7]: not

Molecule: un-encapsulated albumin-FITC: albumin-FITC (non-encapsulated)
- brain accumulation of albumin-FITC [8]: little, if any, brain accumulation

B1: GDNF: glial cell line-derived neurotrophic factor, human (protein, UniProt P39905 78-211, looked up)
Glial cell line-derived …: SPDKQMAVLPRRERNRQAAAANPENSRGKGRRGQRGKNRGCVLTAIHLNVTDLGLGYETKEELIFRYCSGSCDAAETTYDKILKNLSRNRRLVSDKVGQACCRPIAFDDDLSFLDDNLVYHILRKHSAKRCGCI
- GDNF integrity after encapsulation with sonication [9]: no fragmentation
- percent encapsulation [10]: 66%
- phosphorylation of AKT and MAPK [11]: same degree of phosphorylation

B2: trypsinogen: model protein for GDNF, from bovine pancreas (protein, UniProt P00760 18-246, looked up)
pro-form: VDDDDKIVGGYTCGANTVPYQVSLNSGYHFCGGSLINSQWVVSAAHCYKSGIQVRLGEDNINVVEGNEQFISASKSIVHPSYNSNTLNNDIMLIKLKSAASLNSRVASISLPTSCASAGTQCLISGWGNTKSSGTSYPDVLKCLKAPILSDSSCKSAYPGQITSNMFCAGYLEGGKDSCQGDSGGPVVCSGKLQGIVSWGSGCAQKNKPGVYTKVCNYVSWIKQTIASN
modifications: pro-form
notes: model protein for GDNF, from bovine pancreas
- percent encapsulation ([12]; 50 μg/ml trypsinogen (AlexaFluor-488)): 54%
- percent encapsulation ([12]; 100 μg/ml trypsinogen (AlexaFluor-488)): 42%
